Holding throughout (type): cell-based
For experiment [1], the target named is T1, CRTH2 (Homo sapiens, UniProt Q9Y5Y4).
T1 sequence (Q9Y5Y4 1-395): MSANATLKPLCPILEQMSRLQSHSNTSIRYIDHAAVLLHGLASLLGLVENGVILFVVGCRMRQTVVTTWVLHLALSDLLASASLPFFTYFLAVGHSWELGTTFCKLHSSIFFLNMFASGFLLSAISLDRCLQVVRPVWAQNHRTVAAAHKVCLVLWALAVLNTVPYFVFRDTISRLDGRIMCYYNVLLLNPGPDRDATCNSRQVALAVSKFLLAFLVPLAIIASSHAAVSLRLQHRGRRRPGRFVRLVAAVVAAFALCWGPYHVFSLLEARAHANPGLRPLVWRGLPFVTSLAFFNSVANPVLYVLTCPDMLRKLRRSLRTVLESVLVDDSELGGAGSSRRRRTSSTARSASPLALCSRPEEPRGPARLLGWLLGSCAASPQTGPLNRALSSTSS
In words: 3H-PGD2 competition binding, K562/CRTH2 cells.

For experiment [2], the target named is T2, DP (Homo sapiens, UniProt Q13258).
T2 sequence (Q13258 1-359): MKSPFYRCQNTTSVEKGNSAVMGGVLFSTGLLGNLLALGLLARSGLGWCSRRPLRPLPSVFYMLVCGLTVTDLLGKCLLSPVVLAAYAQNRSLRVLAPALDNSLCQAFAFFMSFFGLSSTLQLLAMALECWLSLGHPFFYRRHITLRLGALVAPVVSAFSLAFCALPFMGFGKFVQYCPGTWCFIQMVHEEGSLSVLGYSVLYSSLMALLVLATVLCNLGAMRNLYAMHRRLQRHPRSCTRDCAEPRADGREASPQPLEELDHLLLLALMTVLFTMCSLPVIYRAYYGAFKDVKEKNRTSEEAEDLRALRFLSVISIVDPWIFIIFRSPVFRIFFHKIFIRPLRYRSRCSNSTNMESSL
In words: 3H-PGD2 competition binding, K562/DP cells.

Experiment [3] addresses T1, CRTH2. In words: 3H-PGD2 saturation binding.
Experiment [4] deals with T2, DP. In words: 3H-PGD2 saturation binding.

Bounds are passed on as bounds.

The Ki is the equilibrium dissociation constant of an inhibitor or competing ligand from its target. Read a low Ki as higher affinity. `O=C(O)CCCCCC[C@H]1C(=O)NC(=O)N1CC[C@@H](O)C1CCCCC1` [BW245C]: the Ki at CRTH2 [1] was > 100 µM; at DP [2] it was 0.05 ± 0.02 µM.

On to `CCCCC[C@H](O)/C=C/[C@@H]1[C@@H](C/C=C\CCCC(=O)O)[C@@H](O)C[C@@H]1O` [11β-PGF2α], for which the Ki on CRTH2 [1] was 20 µM; on DP [2] it was 1.2 µM.

Regarding `CCCCC[C@H](O)/C=C/[C@H]1C(=O)C[C@H](O)[C@@H]1C/C=C\CCCC(=O)OC` [PGD2 methyl ester], the values for the Ki on CRTH2 [1] and at DP [2] were 0.46 ± 0.12 µM and 0.27 ± 0.046 µM, respectively.

Take `CCCCC[C@H](O)/C=C/[C@H]1C=CC(=O)[C@@H]1C/C=C\CCCC(=O)O` [PGA2]: the Ki on CRTH2 [1] and at DP [2] was > 30 µM throughout.

With `CCCCC[C@H](O)/C=C/[C@H]1C(=O)C=C[C@@H]1C/C=C\CCCC(=O)O` [PGJ2], the inhibition constant Ki was found to be 0.46 ± 0.16 µM on CRTH2 [1] and 0.064 ± 0.013 µM at DP [2].

Turning to `CCCCC[C@H](O)/C=C/C=C\C=C\C=C\[C@@H](O)[C@@H](O)CCCC(=O)O` [LXA4], the Ki at CRTH2 [1] and on DP [2] was > 30 µM throughout.

On to `CCCCC/C=C/C=C1/C(=O)C=C[C@@H]1C/C=C\CCCC(=O)O` [15-deoxy-Δ^12,14-PGJ2], for which the inhibition constant (Ki) at CRTH2 [1] was 2.3 µM; on DP [2], > 30 µM.

With `CCCCC[C@H](O)/C=C/[C@H]1[C@H](O)CC(=O)[C@@H]1C/C=C\CCCC(=O)O` [PGE2], the Ki was 3.1 µM on CRTH2 [1] and 2.3 µM at DP [2].

`CCCCC[C@H](O)/C=C/[C@@H]1[C@@H](C/C=C\CCCC(=O)O)[C@H]2CO[C@@H]1C2` [U46619]: the Ki on CRTH2 [1] and at DP [2] was > 30 µM throughout.

Turning to `CCCCC[C@H](O)/C=C/[C@@H]1[C@@H](C/C=C\CCCC(=O)O)[C@@H](O)C[C@H]1O` [PGF2α], the results for the Ki at CRTH2 [1] and at DP [2] were 2 µM and > 30 µM, respectively.

For orientation: Kd means a measure of binding affinity in units of concentration. Low values mean a tighter complex, high ones a looser complex. As for `CCCCC[C@H](O)/C=C/[C@H]1C(=O)C[C@H](O)[C@@H]1C/C=C\CCCC(=O)O` [PGD2], the figures for the Ki on CRTH2 [1] and at DP [2] were 0.061 ± 0.023 µM and 0.045 ± 0.017 µM, respectively. Also, the Kd was found to be 0.0313 µM on CRTH2 [3] and 0.0377 µM on DP [4].

In the case of `CCCCC/C=C\C[C@@H](O)/C=C/C=C/C=C\[C@@H](O)CCCC(=O)O` [LTB4], the inhibitory constant (Ki) at CRTH2 [1] and on DP [2] was > 30 µM in each case.

For the compound `CCCCC[C@H](O)C/C=C1/C(=O)C=C[C@@H]1C/C=C\CCCC(=O)O` [Δ^12-PGJ2], the Ki at CRTH2 [1] was determined as 7.1 µM; at DP [2], 5.2 µM.

In the case of `CCCCCC(=O)CC[C@H]1C(=O)C[C@H](O)[C@@H]1C/C=C\CCCC(=O)O` [DK-PGD2, 13,14-dihydro-15-keto-PGD2], the Ki on CRTH2 [1] was 0.16 ± 0.035 µM; at DP [2], > 30 µM.

(Values after publication PMC2193345 (The Journal of Experimental Medicine, 2001).)
